# Test results reported in patent US8598211B2, “Carboxamide compounds and their use as calpain inhibitors IV” (AbbVie Inc., priority 2009, dated 2013).
# Biological target: T1, calpain-I (Homo sapiens, UniProt P07384)
# T1 construct: calpain-I—isolated from human erythrocytes; purchased Calbiochem 208713; host or cells: human erythrocytes (natural source)
# T1 sequence (P07384 1-714): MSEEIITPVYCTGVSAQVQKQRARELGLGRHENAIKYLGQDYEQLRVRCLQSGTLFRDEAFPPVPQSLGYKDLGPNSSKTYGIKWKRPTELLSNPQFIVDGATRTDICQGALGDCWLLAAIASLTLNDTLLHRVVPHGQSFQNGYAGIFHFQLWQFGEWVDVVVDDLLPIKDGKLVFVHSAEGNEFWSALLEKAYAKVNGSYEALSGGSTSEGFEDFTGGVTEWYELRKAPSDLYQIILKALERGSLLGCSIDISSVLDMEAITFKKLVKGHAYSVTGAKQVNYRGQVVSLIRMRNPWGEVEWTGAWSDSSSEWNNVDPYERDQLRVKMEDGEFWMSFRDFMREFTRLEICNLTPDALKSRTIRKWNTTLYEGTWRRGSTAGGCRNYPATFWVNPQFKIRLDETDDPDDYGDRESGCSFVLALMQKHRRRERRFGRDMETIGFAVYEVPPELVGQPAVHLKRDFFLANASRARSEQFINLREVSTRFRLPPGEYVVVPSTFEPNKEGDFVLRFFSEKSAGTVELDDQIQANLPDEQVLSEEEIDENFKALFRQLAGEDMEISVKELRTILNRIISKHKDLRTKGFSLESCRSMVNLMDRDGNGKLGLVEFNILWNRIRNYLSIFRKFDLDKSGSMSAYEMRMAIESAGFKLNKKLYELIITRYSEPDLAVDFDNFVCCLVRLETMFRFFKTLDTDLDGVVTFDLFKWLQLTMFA
# T1 sequence (P04632 1-268 partner): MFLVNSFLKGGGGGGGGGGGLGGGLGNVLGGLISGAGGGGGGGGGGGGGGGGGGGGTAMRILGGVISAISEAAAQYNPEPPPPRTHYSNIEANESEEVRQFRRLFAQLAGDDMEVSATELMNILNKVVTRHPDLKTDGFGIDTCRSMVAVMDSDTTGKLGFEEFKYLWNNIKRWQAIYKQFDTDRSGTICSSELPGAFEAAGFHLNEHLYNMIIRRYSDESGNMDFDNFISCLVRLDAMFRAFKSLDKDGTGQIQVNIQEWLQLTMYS
# Test: Calpain I kinetic fluorescence enzyme inhibition assay
# Type: biochemical
# Details: calpain-I from human erythrocytes, Suc-Leu-Tyr-AMC, pH 7.3; apparent Ki from IC50 by Cheng-Prussoff
# Protocol: Testing for blockade of the corresponding enzymic activities was carried out by means of kinetic fluorescence assays (excitation 390 nm, emission 460 nm).
# Apparent Ki values were calculated from the experimentally determined IC50 values by the Cheng-Prussoff relation assuming a reversible competitive enzyme inhibition.
# 20 nM calpain-I—isolated from human erythrocytes (Calbiochem #208713), 100 μM Suc-Leu-Tyr-AMC (Bachem #I-1355) as substrate in buffer with 62 mM imidazole, 0.3 mM CaCl2, 0.10% CHAPS, 0.05% BSA, 1 mM DTT at pH 7.3 and room temperature.
row,Ki [nM],Structure (SMILES)
1,250 to 400,"O=C(NC1CC1)C(=O)C(Cc1cccc(F)c1)NC(=O)c1cccnc1-n1ccc(-c2ccccc2)n1 (stereo not drawn) [Example 14, N-(4-(Cyclopropylamino)-1-(3-fluorophenyl)-3,4-dioxobutan-2-yl)-2-(3-phenyl-1H-pyrazol-1-yl)nicotinamide]"
2,250 to 400,"CNC(=O)C(=O)C(Cc1ccccc1)NC(=O)c1cccnc1-n1ccc(-c2ccccc2)n1 (stereo not drawn) [Example 7, N-(4-(Methylamino)-3,4-dioxo-1-phenylbutan-2-yl)-2-(3-phenyl-1H-pyrazol-1-yl)nicotinamide, reference compound]"
3,800 to 1000,"O=C(NC1CC1)C(=O)C(Cc1ccccc1)NC(=O)c1cccnc1-n1ccc(-c2ccc(F)cc2)n1 (stereo not drawn) [Example 19, N-[4-(Cyclopropylamino)-3,4-dioxo-1-phenyl-2-butanyl]-2-[3-(4-fluorophenyl)-1H-pyrazol-1-yl]nicotinamide]"
4,< 250,"O=C(NCc1nc2ccccc2o1)C(=O)C(Cc1ccccc1)NC(=O)c1cccnc1-n1ccc(-c2ccccc2)n1 (stereo not drawn) [Example 15, N-{4-[(1,3-Benzoxazol-2-ylmethyl)amino]-3,4-dioxo-1-phenylbutan-2-yl}-2-(3-phenyl-1H-pyrazol-1-yl)pyridine-3-carboxamide]"
5,250 to 400,"O=C(NCCc1ccccc1)C(=O)C(Cc1ccccc1)NC(=O)c1cccnc1-n1ccc(-c2ccccc2)n1 (stereo not drawn) [Example 17, N-(3,4-Dioxo-4-(phenethylamino)-1-phenylbutan-2-yl)-2-(3-phenyl-1H-pyrazol-1-yl)nicotinamide]"
6,< 250,"COC(=O)CNC(=O)C(=O)C(Cc1ccccc1)NC(=O)c1cccnc1-n1ccc(-c2ccccc2)n1 (stereo not drawn) [Example 21, Methyl N-[2-oxo-4-phenyl-3-({[2-(3-phenyl-1H-pyrazol-1-yl)-3-pyridinyl]carbonyl}amino)butanoyl]glycinat]"
7,< 250,"O=C(NCCCc1ccccn1)C(=O)C(Cc1ccccc1)NC(=O)c1cccnc1-n1ccc(-c2ccc(F)cc2)n1 (stereo not drawn) [Example 4, N-(3,4-Dioxo-1-phenyl-4-{[3-(pyridin-2-yl)propyl]amino}butan-2-yl)-2-[3-(4-fluorophenyl)-1H-pyrazol-1-yl]pyridine-3-carboxamide]"
8,250 to 400,"O=C(NCc1ccccn1)C(=O)C(Cc1ccccc1)NC(=O)c1cccnc1-n1ccc(-c2ccc(F)cc2)n1 (stereo not drawn) [Example 2, N-{3,4-Dioxo-1-phenyl-4-[(pyridin-2-ylmethyl)amino]butan-2-yl}-2-[3-(4-fluorophenyl)-1H-pyrazol-1-yl]pyridine-3-carboxamide]"
9,400 to 800,"C=CCNC(=O)C(=O)C(Cc1ccccc1)NC(=O)c1cccnc1-n1ccc(-c2ccccc2)n1 (stereo not drawn) [Example 6, N-[3,4-Dioxo-1-phenyl-4-(prop-2-en-1-ylamino)butan-2-yl]-2-(3-phenyl-1H-pyrazol-1-yl)pyridine-3-carboxamide]"
10,250 to 400,"O=C(NCc1ncco1)C(=O)C(Cc1ccccc1)NC(=O)c1cccnc1-n1ccc(-c2ccccc2)n1 (stereo not drawn) [Example 24, N-{4-[(1,3-Oxazol-2-ylmethyl)amino]-3,4-dioxo-1-phenyl-2-butanyl}-2-(3-phenyl-1H-pyrazol-1-yl)nicotinamide]"
11,< 250,"O=C(NCc1ccccc1)C(=O)C(Cc1ccccc1)NC(=O)c1cccnc1-n1ccc(-c2ccccc2)n1 (stereo not drawn) [Example 16, N-(4-(Benzylamino)-3,4-dioxo-1-phenylbutan-2-yl)-2-(3-phenyl-1H-pyrazol-1-yl)nicotinamide]"
12,400 to 800,"O=C(NC1CC1)C(=O)C(Cc1ccccc1)NC(=O)c1cccnc1-n1cc(F)c(-c2ccccc2)n1 (stereo not drawn) [Example 12, N-(4-(Cyclopropylamino)-3,4-dioxo-1-phenylbutan-2-yl)-2-(4-fluoro-3-phenyl-1H-pyrazol-1-yl)nicotinamide]"
13,< 250,"O=C(NCc1ccccn1)C(=O)C(Cc1ccccc1)NC(=O)c1cccnc1-n1ccc(-c2ccccc2)n1 (stereo not drawn) [Example 8, N-[4-(Pyridin-2-ylmethylamino)-3,4-dioxo-1-phenylbutan-2-yl]-2-(3-phenyl-1H-pyrazol-1-yl)pyridine-3-carboxamide]"
14,400 to 800,"O=C(NC1CC1)C(=O)C(Cc1ccc(F)cc1)NC(=O)c1cccnc1-n1ccc(-c2ccccc2)n1 (stereo not drawn) [Example 13, N-(4-(Cyclopropylamino)-1-(4-fluorophenyl)-3,4-dioxobutan-2-yl)-2-(3-phenyl-1H-pyrazol-1-yl)nicotinamide]"
15,< 250,"O=C(NC1CC1)C(=O)C(Cc1ccccc1)NC(=O)c1cccnc1-n1ccc(-c2ccccc2)n1 (stereo not drawn) [Example 5, N-[4-(Cyclopropylamino)-3,4-dioxo-1-phenylbutan-2-yl]-2-(3-phenyl-1H-pyrazol-1-yl)pyridine-3-carboxamide]"
16,400 to 800,"O=C(NC1CCC1)C(=O)C(Cc1ccccc1)NC(=O)c1cccnc1-n1ccc(-c2ccccc2)n1 (stereo not drawn) [Example 10, N-(4-(Cyclobutylamino)-3,4-dioxo-1-phenylbutan-2-yl)-2-(3-phenyl-1H-pyrazol-1-yl)nicotinamide]"
17,< 250,"NC(=O)C(=O)C(Cc1ccccc1)NC(=O)c1cccnc1-n1ccc(-c2ccc(F)cc2)n1 (stereo not drawn) [Example 18, N-(3-Amino-1-benzyl-2,3-dioxopropyl)-2-[3-(4-fluorophenyl)-1H-pyrazol-1-yl]nicotinamide, reference compound]"
18,400 to 800,"O=C(NCC1CC1)C(=O)C(Cc1ccccc1)NC(=O)c1cccnc1-n1ccc(-c2ccccc2)n1 (stereo not drawn) [Example 9, N-(4-(Cyclopropylmethylamino)-3,4-dioxo-1-phenylbutan-2-yl)-2-(3-phenyl-1H-pyrazol-1-yl)nicotinamide]"
19,400 to 800,"CCCNC(=O)C(=O)C(Cc1ccccc1)NC(=O)c1cccnc1-n1ccc(-c2ccccc2)n1 (stereo not drawn) [Example 11, N-(3,4-Dioxo-1-phenyl-4-(propylamino)butan-2-yl)-2-(3-phenyl-1H-pyrazol-1-yl)nicotinamide]"
20,400 to 800,"O=C(NC1CC1)C(=O)C(Cc1ccc(OCCN2CCOCC2)cc1)NC(=O)c1cccnc1-n1ccc(-c2ccccc2)n1 (stereo not drawn) [Example 23, N-[4-(Cyclopropylamino)-1-{4-[2-(4-morpholinyl)ethoxy]phenyl}-3,4-dioxo-2-butanyl]-2-(3-phenyl-1H-pyrazol-1-yl)nicotinamide]"
21,400 to 800,"O=C(NC1CC1)C(=O)C(Cc1ccc(CN2CCOCC2)cc1)NC(=O)c1cccnc1-n1ccc(-c2ccccc2)n1 (stereo not drawn) [Example 25, N-{4-(Cyclopropylamino)-1-[4-(4-morpholinylmethyl)phenyl]-3,4-dioxo-2-butanyl}-2-(3-phenyl-1H-pyrazol-1-yl)nicotinamide]"

# Biological target: T2, cathepsin L (Homo sapiens, UniProt P07711)
# T2 construct: cathepsin L—isolated from human liver; purchased Calbiochem 219402; host or cells: human liver (natural source)
# T2 sequence (P07711 114-333): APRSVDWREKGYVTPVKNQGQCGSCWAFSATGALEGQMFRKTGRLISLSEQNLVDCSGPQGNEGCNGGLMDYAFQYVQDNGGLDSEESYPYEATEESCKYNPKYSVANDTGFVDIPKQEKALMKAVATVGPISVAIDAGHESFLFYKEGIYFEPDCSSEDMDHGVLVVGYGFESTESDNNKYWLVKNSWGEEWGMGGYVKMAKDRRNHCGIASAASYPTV
# Test: Cathepsin L kinetic fluorescence enzyme inhibition assay
# Type: biochemical
# Details: selectivity ratio versus calpain
# Protocol: 1 nM cathepsin L—isolated from human liver (Calbiochem #219402), 2 μM Z-Phe-Arg-AMC (Bachem #I-1160) as substrate in 50 mM MES, 2 mM EDTA, 0.05% Brij 35, 2.5 mM L-cysteine, pH 6.0, room temperature.
row,Sel cat. L (Ki(cathepsin L)/Ki(calpain) ratio),Structure (SMILES)
1,++ (10<Ki(cathepsin L)/Ki(calpain)≦50),"O=C(NC1CC1)C(=O)C(Cc1ccc(OCCN2CCOCC2)cc1)NC(=O)c1cccnc1-n1ccc(-c2ccccc2)n1 (stereo not drawn) [Example 23, N-[4-(Cyclopropylamino)-1-{4-[2-(4-morpholinyl)ethoxy]phenyl}-3,4-dioxo-2-butanyl]-2-(3-phenyl-1H-pyrazol-1-yl)nicotinamide]"

# Biological target: T3, cathepsin S (Homo sapiens, UniProt P25774)
# T3 construct: purchased Calbiochem 219343; host or cells: E. coli
# T3 sequence (P25774 115-331): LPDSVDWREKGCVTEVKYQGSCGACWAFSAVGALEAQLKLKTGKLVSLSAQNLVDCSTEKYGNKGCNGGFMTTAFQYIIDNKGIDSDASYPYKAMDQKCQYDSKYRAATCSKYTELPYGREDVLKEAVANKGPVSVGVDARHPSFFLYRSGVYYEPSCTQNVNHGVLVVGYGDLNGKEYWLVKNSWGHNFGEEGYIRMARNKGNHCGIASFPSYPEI
# Test: Cathepsin S kinetic fluorescence enzyme inhibition assay
# Type: biochemical
# Details: selectivity ratio versus calpain
# Protocol: 0.5 nM recombinant human cathepsin S from E. coli (Calbiochem #219343), 20 μM Z-Val-Val-Arg-AMC (Bachem #I-1540) as substrate in 50 mM MES, 2 mM EDTA, 0.05% Brij 35, 2.5 mM L-cysteine, pH 6.0, room temperature.
row,Sel cat. S (Ki(cathepsin S)/Ki(calpain) ratio),Structure (SMILES)
1,++ (10<Ki(cathepsin S)/Ki(calpain)≦50),"O=C(NC1CC1)C(=O)C(Cc1ccc(OCCN2CCOCC2)cc1)NC(=O)c1cccnc1-n1ccc(-c2ccccc2)n1 (stereo not drawn) [Example 23, N-[4-(Cyclopropylamino)-1-{4-[2-(4-morpholinyl)ethoxy]phenyl}-3,4-dioxo-2-butanyl]-2-(3-phenyl-1H-pyrazol-1-yl)nicotinamide]"
2,++ (10<Ki(cathepsin S)/Ki(calpain)≦50),"O=C(NC1CC1)C(=O)C(Cc1ccc(CN2CCOCC2)cc1)NC(=O)c1cccnc1-n1ccc(-c2ccccc2)n1 (stereo not drawn) [Example 25, N-{4-(Cyclopropylamino)-1-[4-(4-morpholinylmethyl)phenyl]-3,4-dioxo-2-butanyl}-2-(3-phenyl-1H-pyrazol-1-yl)nicotinamide]"
